Experimental findings from patent publication US7993687B2, “Compositions and methods for management of diabetes” (priority 2006, dated 2011) are described below.

Assay [1] concerns Insulin receptor substrate-I (Tyr941). Kind of assay: Western blot of IRS-1 phosphorylation in H4IIE cells. It is filed as cell-based, rat. Particulars: 6 minutes. The protocol:
Tissue culture media, antibiotics, fetal bovine serum (FBS) and Nunc tissue culture plates were purchased from Invitrogen Canada Inc. (Burlington, Ontario, Canada, L7P 1A1). Insulin (Sigma-Aldrich Canada Ltd., Oakville, Ontario, Canada, L6H 6J8) was dissolved in water and added directly to cells at a concentration of 250 nM unless otherwise indicated. The BWE was prepared and analyzed as described in Example 1. Two μL of the BWE were added directly to cells unless otherwise indicated. This amount was chosen on the basis of equivalence to insulin. Myo-inositol (Sigma-Aldrich Canada Ltd.) and D-chiro-inositol (Industrial Research Ltd., Wellington, New Zealand) were dissolved in water at an equal concentration to the amounts present in the BWE (Table 3) and 2 μL of each solution (0.1% v/v final concentration) was added directly to cells.
Rat H4IIE hepatoma cells (American Type Culture Collection, CRL 1548) were cultured following the method disclosed by Yau et al., (1998, Eur. J. Biochem. 253: 91-1). The H4IIE cells were maintained in α-modified Eagle's media containing 10% FBS, 2 mM glutamine, 25 μg·mL^−1 streptomycin and 25 units·mL^−1 penicillin. Cells were plated and grown to 70% confluence. All cells were placed into serum-free medium for 72 h before addition of stimulating agents to ensure entry into a quiescent state. […]
Cellular protein extracts were prepared by addition of 200 μL 2×SDS/gel loading buffer (0.125 M Tris pH 6.8, 2% SDS, 10% glycerol) to H4IIE cells in 12-well culture dishes. The samples were briefly sonicated, and protein content measured using the BCA protein assay kit. […] HRP was detected using the ECL chemiluminescent system after the membranes had been washed four times.
Quantification of data obtained on film (Kodak X-omat) was accomplished with a GS800 imaging densitometer (Bio-Rad Laboratories) under nonsaturating conditions with local background subtraction. […]

Assay [2] relates to H4IIE cells. In words: 3H-deoxyglucose uptake by H4IIE cells. It is filed as cell-based, rat. Particulars: for 3H-deoxy-glucose uptake (basal) by H4IIE cells: insulin 10^-6 M, 2 μL (0.4% v/v) of BWE, D-CI or MI, versus untreated cells. The protocol: Tissue culture media, antibiotics, fetal bovine serum (FBS) and Nunc tissue culture plates were purchased from Gibco-BRL (division of Invitrogen Canada Inc.). Insulin (Sigma-Aldrich Canada Ltd.) was dissolved in water and added directly to cells at a final concentration of 10^−6 M. The buckwheat extract was prepared and analyzed as in Example 1. Two μL of the buckwheat extract were added directly to cells unless otherwise indicated. Myo-inositol (Sigma Aldrich Canada Ltd.) and D-chiro-inositol (Industrial Research Ltd.) were dissolved in water at an equal concentration to the amounts present in the BWE (Table 3) and 2 μL of each solution was added directly to cells.
Rat H4IIE hepatoma cells (American Type Culture Collection, CRL 1548) were cultured as described in Example 3. Briefly, cells were maintained in α-modified Eagle's media containing 10% FBS, 2 mM glutamine, 50 μg·mL^−1 streptomycin and 50 μg·mL^−1 penicillin. Cells were plated and grown to 70% confluence. All cells were placed into serum-free medium for 72 h before addition of stimulating agents to ensure entry into a quiescent state.
^3H-deoxyglucose uptake was assayed using the method disclosed by Harrison et al. (1990, J. Biol. Chem. 265(10):5793-5801). Quiescent H4IIE cells, in 24-well culture dishes containing 1 mL serum-free medium, were washed three times with physiological salt solution (PSS) ([…], pH 7.4). Cells were placed into 0.5 mL PSS and pre-incubated with inhibitors for 10 minutes prior to the 20 minute stimulation with treatments (insulin, BWE, D-CI, MI). For all experiments, insulin was added at a concentration of 10^−6 M whereas 2 μL volumes of the BWE, D-CI, or MI (0.4% v/v final concentration) were added to cells unless otherwise indicated in figures. Sugar uptake was initiated by the addition of ^3H-deoxyglucose to a final assay concentration of 0.1 mM glucose (1 mCi/mL) and the cells were subsequently incubated for 5 minutes at 37° C. After two rapid washes with ice-cold PSS (0.5-1 mL/well), the cells were solubilized with 0.4 mL of 0.1% SDS, and ^3H was detected in 3 mL of EcoLume scintillant (MP Biomedicals Inc., Costa Mesa, Calif., USA, 92626).
Statistical significance between treatments was determined by one-way ANOVA and by Duncan's multiple range test for means testing (SAS v.9.1, SAS Institute Inc., Cary, N.C.). […] Data are expressed as the mean±SE.
Since insulin has the same effect, we compared the ability of BWE, insulin and two insulin-mimetic compounds (D-CI and MI) to stimulate glucose uptake by H4IIE hepatoma cells. […] Radio-labelled deoxyglucose was added to the medium and glucose uptake was determined by the detection of ^3H in cells.
Fractions (˜1.0 ml) from each solvent extraction were collected and assayed for their effects on MAPK activation as described in Example 3. The effects of selected fractions, alone or in combination with insulin, on the uptake of labelled glucose were assessed following the methods described in Example 4. […] The effects of the solvent fractions on H4IIE cells were assessed with 20-min exposure periods after which, sugar uptake was initiated by the addition of ^3H-deoxyglucose to a final assay concentration of 0.1 mM glucose (1 mCi/mL) and the cells were subsequently incubated for 5 minutes at 37° C. After two rapid washes with ice-cold PSS (0.5-1 mL/well), the cells were solubilized with 0.4 mL of 0.1% SDS, and ^3H was detected in 3 mL of EcoLume scintillant. […]

Consider “insulin: Insulin (Sigma-Aldrich) dissolved in water, positive comparator”, for which, in assay [1], the “phosphorylation of IRS-1” value is listed as “phosphorylated in response to insulin”. Moreover, the “3H-deoxy-glucose uptake (basal) by H4IIE cells” value in assay [2] was “stimulated glucose uptake”.
The matching figures for `OC1C(O)C(O)C(O)C(O)C1O` [D-CI, D-chiro-inositol]: “do not provide comparable stimulation” and “stimulated glucose uptake”.
The matching figures for `O[C@H]1[C@H](O)[C@@H](O)[C@H](O)[C@@H](O)[C@H]1O` [MI, myo-inositol]: “do not provide comparable stimulation” and “not statistically different from untreated cells”.
As for `COc1cccc(-c2cc(=O)c3ccccc3o2)c1N` [PD98059], in assay [2] (H4IIE cells, pre-incubated with inhibitor, then insulin), the “effect of the inhibitor on insulin-stimulated glucose uptake (FIG. 23)” value is “decreased insulin-stimulated glucose uptake”.
